Legend:
PNT2 cells = assay: MTS colorimetric viable cell assay, PNT2; assay type: cell-based, human; settings: 30 μM, 27h, 492 nm, triplicate
Outline: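 Cells seeded at 8,000/well, given peptides (14mer to 6mer) at 30 μM final at the outset, triplicate, buffer controls; viable cells by MTS absorbance at 492 nm after 27 h growth. Data as OD mean ± SEM, two-tailed t-test; a 14mer time course on PC3 read at 24 and 48 h.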

LNCaP cells = assay: MTS viable cell assay, LNCaP (Epistem); assay type: cell-based, human; settings: over 72h, single dose level
Procedure: Further assays on human prostate cancer cells were conducted at a contract research organisation (Epistem, Manchester, UK). LNCaP or DU145 cells seeded at 3,000 cells/well across a 96-well plate were cultured in RPMI (phenol red free), 10% FCS, 1% sodium pyruvate, Pen/strep and L-glutamine for 24h before exposure to peptides, at a single dose level in the case of LNCaPs or multiple dose levels in the case of DU145s. (For dose levels see Results.) Controls received vehicle (1% PBS). For the DU145s peptide administration was repeated after 24h. 72h after the first administration (DU145s) or only administration (LNCaP) total viable cell numbers were measured colorimetrically (MTS) using a CellTiter 96 AQueous One Solution Cell Proliferation Assay (Promega, Southampton, UK), following manufacturer’s instructions. Briefly, the media on the plates was replaced with the CellTiter reagent diluted 1:5 in DMEM. The plates were returned to the incubator for 3 hours before reading absorbance at 492 nm on a FLUORstar OPTIMA (BMG Labtech). CellTiter data are the absorbance minus background values (CellTiter plus DMEM), expressed as (OD mean +/− SEM). Statistical analysis was by ANOVA, Dunnett’s multiple comparisons test.

DU145 cells = assay: MTS viable cell assay, DU145 (Epistem); assay type: cell-based, human; settings: DU145; 150 μM (highest concentration); 72h
Outline: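 DU145 or LNCaP cells, 3,000/well in RPMI with 10% FCS, grown 24 h, then peptide added: multiple dose levels, repeated after 24 h, for DU145; single dose level, once, for LNCaP; vehicle 1% PBS. MTS absorbance 492 nm at 72 h after first dose, background-subtracted OD mean±SEM; ANOVA with Dunnett's test.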

[1] = system: MCF 7 human breast cancer cells; settings: in words; EPL120 over 72h, dose range 0.04 nM– 4 μM; cited from earlier work
[2] = system: compensatory renal growth; settings: in words; cited from earlier work
Procedure: The 14-residue N-terminal Edman sequence EPL001 was determined in the context of a polypeptide candidate of m/z ~7,500 (‘Candidate 7500’) in MALDI-TOF mass spectrometry (MS) and a corresponding band in SDS polyacrylamide gel electrophoresis, implying a chain of ~70 aa for the native molecule. In spite of comprising only 20% of Candidate 7500, EPL001 surpris ...

hMSCs = system: hMSCs; parameters: method as in earlier work; settings: EPL001 0.15µM or EPL140 15µM, three days; cited from earlier work
[3] = system: hDPSC (Human Dental Pulp Derived Mesenchymal-Like Stem/Progenitor Cells); parameters: method as in earlier work; settings: EPL001 0.15µM or EPL140 15µM, three days; cited from earlier work

Question: Which “Difference in percentage terms between control and test OD means” value (PNT2 cells) does the source give for “MKPLTGKVKEFNNI [EPL001, 14mer master test peptide …; ovine provenance]” here?
Answer: +3.1%

Question: What about the “Reduction in test mean OD versus the vehicle control mean” value (LNCaP cells) of the same sequence?
Answer: -17.0%

Question: What about the “Test mean OD vs control mean” value (DU145 cells) of the same sequence?
Answer: −16.5%

Question: And the “Inhibition of IGF-1 stimulated growth in MCF-7 cell numbers” value [1]?
Answer: inhibits the proliferation

Question: What about the “Effect on rat compensatory renal growth” value [2] of the same sequence?
Answer: anti-organotrophic

Question: What about the Bmal1 expression (hMSCs) of the same sequence?
Answer: ↑↑

Question: What about the OCN expression (hMSCs) of the same sequence?
Answer: ↓

Question: What about the PPARγ expression (hMSCs) of the same sequence?
Answer: ↓

Question: And the Per2 expression (hMSCs)?
Answer: ↓

Question: What about the Sox9 expression (hMSCs) of the same sequence?
Answer: ↓

Question: And the Bmal1 expression [3]?
Answer: ↑

Question: And the OCN expression [3]?
Answer: ↓↓

Question: What about the PPARγ expression [3] of the same sequence?
Answer: ↓↓

Question: And the Per2 expression [3]?
Answer: ↑

Question: And the Rev-ErbA expression [3]?
Answer: ↓

Question: What about the Sox9 expression [3] of the same sequence?
Answer: (↓)

Reference: PMC9714824, “Hexapeptides from mammalian inhibitory hormone hunt activate and inactivate nematode reproduction” (PLOS ONE, 2022)
